From the supplement of paper PMC10307832

How the values were obtained:
Test in all cases: relative viability (nuclei count vs DMSO), 5 days (fraction); higher = more cells survive
AZ3146 = compound: CN1CCC(CC1)OC2=CC(=C(C=C2)NC3=NC=C4C(=N3)N(C(=O)N4C)C5CCCC5)OC [AZ3146]
Outline: (§1)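 After an overnight hold at 37 °C, lung cancer cell lines in 1536-well plates were pinned with five library-drug doses (not always all listed), each √10 from the next, on vehicle-anchored plates. The cells stayed 5 days without fresh medium, then a one-step fix, permeabilisation and Hoechst stain preceded 4× imaging and MetaXpress nuclear counts. A plate passed only with control CV under 25% and at least one doubling. Viability is the median, over plates, of treated-well nuclei relative to vehicle-well nuclei.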

GSK-J4 = compound: CCOC(=O)CCNc1cc(N2CCc3ccccc3CC2)nc(-c2ccccn2)n1 [GSK-J4]
Outline: as §1

AZ3146 + Pemetrexed = compound: CN1CCC(CC1)OC2=CC(=C(C=C2)NC3=NC=C4C(=N3)N(C(=O)N4C)C5CCCC5)OC [AZ3146] + Nc1nc2[nH]cc(CCc3ccc(C(=O)N[C@@H](CCC(=O)O)C(=O)O)cc3)c2c(=O)[nH]1 [Pemetrexed] (partner 0.2 µM)
Outline: (§2)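 Relative viability is defined as nuclei in treated wells over nuclei in vehicle wells. Duplicate plates were run and medians reported. Lung cancer cell lines in 1536-well plates were dosed by pin tool one day after seeding, with one drug or with a fixed anchor-drug dose plus five library-drug doses (not always all listed) in √10 steps, and nuclei were counted after 5 days.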

GSK-J4 + OSI-027 = compound: CCOC(=O)CCNc1cc(N2CCc3ccccc3CC2)nc(-c2ccccn2)n1 [GSK-J4] + COc1cccc2cc(-c3nc([C@H]4CC[C@H](C(=O)O)CC4)n4ncnc(N)c34)[nH]c12 [OSI-027] (partner 0.5 µM)
Outline: as §2

Row | Cell Line | relative viability (AZ3146; 0.253 µM) | relative viability (AZ3146; 0.8 µM) | relative viability (AZ3146; 2.53 µM) | relative viability (AZ3146; 8 µM) | relative viability (GSK-J4; 0.5 µM) | relative viability (GSK-J4; 1.581 µM) | relative viability (GSK-J4; 5 µM) | relative viability (GSK-J4; 15.81 µM) | relative viability (GSK-J4; 50 µM) | relative viability (AZ3146 + Pemetrexed; first compound 0.253 µM) | relative viability (AZ3146 + Pemetrexed; first compound 0.8 µM) | relative viability (AZ3146 + Pemetrexed; first compound 2.53 µM) | relative viability (AZ3146 + Pemetrexed; first compound 8 µM) | relative viability (GSK-J4 + OSI-027; first compound 0.5 µM) | relative viability (GSK-J4 + OSI-027; first compound 1.581 µM) | relative viability (GSK-J4 + OSI-027; first compound 5 µM) | relative viability (GSK-J4 + OSI-027; first compound 15.81 µM) | relative viability (GSK-J4 + OSI-027; first compound 50 µM) | relative viability (AZ3146; 0.08 µM) | relative viability (AZ3146 + Pemetrexed; first compound 0.08 µM)
1 | HCC-78 | 1.01 | 0.864 | 0.989 | 0.956 | 1.06 | 0.946 | 1.14 | 0.728 | 0.92 | 1 | 0.911 | 0.91 | 0.895 | 0.351 | 0.355 | 0.727 | 0.368 | 0.409 |  | 
2 | HCC-366 | 0.939 | 1.02 | 0.973 | 0.988 | 1.03 | 0.851 |  | 0.988 | 0.989 | 0.205 | 0.198 | 0.157 | 0.148 | 1.01 | 0.889 |  | 0.524 | 0.785 | 0.9 | 0.166
3 | HCC-827 | 0.998 | 0.987 | 0.939 | 1.04 | 1.01 | 0.902 | 0.839 | 1 | 1.02 | 0.244 | 0.252 | 0.269 | 0.248 | 0.751 | 0.635 | 0.792 | 0.576 | 0.787 | 1.04 | 0.291
4 | HOP-62 | 0.986 | 0.98 | 1.03 | 0.956 | 1 | 0.835 | 1.04 | 0.987 | 0.749 | 0.328 | 0.339 | 0.305 | 0.365 | 0.69 | 0.692 | 0.722 | 0.858 | 0.497 | 0.958 | 0.242
5 | IA-LM | 0.998 | 0.987 | 0.957 | 0.742 | 0.887 | 0.84 | 1.17 | 0.821 | 0.315 |  |  |  |  |  |  |  |  |  | 0.971 | 
6 | LC-2-ad | 1.04 | 0.979 | 0.967 | 0.91 | 0.988 | 0.807 | 0.787 | 0.933 | 0.903 | 0.29 | 0.271 | 0.262 | 0.259 | 0.828 | 0.759 | 0.659 | 0.623 | 0.528 | 0.895 | 0.245
7 | LCLC-97TM1 | 1.01 | 0.932 | 1.1 | 0.751 | 0.865 | 0.753 | 1.05 | 0.608 | 0.755 | 0.184 | 0.233 | 0.192 | 0.163 | 0.443 | 0.357 | 0.574 | 0.342 | 0.269 | 0.836 | 0.142
8 | LCLC-103H | 0.949 | 0.974 | 0.995 | 0.965 | 1.07 | 0.883 | 0.908 | 0.954 | 0.94 | 0.439 | 0.444 | 0.49 | 0.499 | 0.438 | 0.325 | 0.379 | 0.432 | 0.326 | 0.974 | 0.429
9 | LK-2 | 0.782 | 0.961 | 1.08 | 1.05 | 1.07 | 0.886 | 1.22 | 0.756 | 1 |  | 0.168 | 0.318 | 0.307 | 0.268 | 0.193 | 0.204 | 0.152 | 0.19 | 0.743 | 
10 | LOU-NH91 | 0.935 | 0.957 | 0.986 | 0.96 | 1.12 | 1.03 | 0.724 | 0.868 | 0.952 | 0.448 | 0.362 | 0.368 | 0.411 | 0.749 | 0.721 | 0.56 | 0.69 | 0.792 | 1.01 | 0.327
11 | LU99A | 1.04 | 0.989 | 0.964 | 1.11 | 0.819 | 0.872 |  | 0.884 | 0.756 | 0.188 | 0.181 | 0.165 | 0.186 | 0.267 | 0.323 |  | 0.248 | 0.236 | 0.783 | 
12 | LXF-289 | 0.991 | 0.989 | 1.02 | 0.982 | 1.02 | 0.903 | 0.967 | 1.02 | 0.983 | 0.85 | 0.912 | 0.924 | 0.799 | 0.783 | 0.583 | 0.53 | 0.711 | 0.52 | 0.944 | 0.953
13 | NCI-H23 | 1.06 | 0.959 | 1.05 | 0.758 | 0.956 | 0.761 | 0.814 | 0.803 | 0.742 | 0.645 | 0.857 | 0.787 | 0.45 | 0.657 | 0.363 | 0.535 | 0.41 | 0.392 | 1.13 | 0.789
14 | NCI-H322M | 0.927 | 0.823 | 0.958 | 0.827 | 1.05 | 1.04 | 1.1 | 0.839 | 0.818 | 0.585 | 0.609 | 0.574 | 0.642 | 0.556 | 0.506 | 0.637 | 0.504 | 0.49 | 0.872 | 0.59
15 | NCI-H727 | 1.08 | 0.838 | 1.21 | 0.74 | 0.863 | 0.754 | 1.11 | 0.85 | 0.468 |  |  |  |  | 0.745 | 0.383 | 0.842 | 0.55 | 0.322 | 0.838 | 
16 | NCI-H1299 | 0.995 | 0.996 | 1.02 | 0.992 | 0.982 | 0.952 | 0.877 | 0.998 | 1 |  |  |  |  |  |  |  |  |  | 0.987 | 
17 | NCI-H1623 | 0.991 | 0.78 | 0.944 | 0.956 | 1.05 | 0.739 | 1.31 | 0.825 | 0.959 |  |  |  |  | 0.438 | 0.456 | 0.48 | 0.406 | 0.435 | 1.03 | 
18 | NCI-H1703 | 0.901 | 0.789 | 0.806 | 0.55 | 0.936 | 0.903 | 0.815 | 0.781 | 0.804 |  |  |  |  |  |  |  |  |  | 0.979 | 
